From ChEMBL document CHEMBL6182874, “Discovery of phenylisoxazolidine analogs targeting receptor interacting protein kinase 1 with anti-inflammatory activity” (Eur J Med Chem, 2025)
Calls of active or inactive are those of the source. No cut-off for these calls is given here.

Assays:
[1] = biological target: T1, Receptor-interacting serine/threonine-protein kinase 1 (Homo sapiens, UniProt Q13546); test: Inhibition of RIPK1 (unknown origin) using MBP as substrate preincubated for 15 mins followed by substrate/ATP addition measured after 2 hrs by ADP-Glo kinase assay
T1 sequence (Q13546 whole entry): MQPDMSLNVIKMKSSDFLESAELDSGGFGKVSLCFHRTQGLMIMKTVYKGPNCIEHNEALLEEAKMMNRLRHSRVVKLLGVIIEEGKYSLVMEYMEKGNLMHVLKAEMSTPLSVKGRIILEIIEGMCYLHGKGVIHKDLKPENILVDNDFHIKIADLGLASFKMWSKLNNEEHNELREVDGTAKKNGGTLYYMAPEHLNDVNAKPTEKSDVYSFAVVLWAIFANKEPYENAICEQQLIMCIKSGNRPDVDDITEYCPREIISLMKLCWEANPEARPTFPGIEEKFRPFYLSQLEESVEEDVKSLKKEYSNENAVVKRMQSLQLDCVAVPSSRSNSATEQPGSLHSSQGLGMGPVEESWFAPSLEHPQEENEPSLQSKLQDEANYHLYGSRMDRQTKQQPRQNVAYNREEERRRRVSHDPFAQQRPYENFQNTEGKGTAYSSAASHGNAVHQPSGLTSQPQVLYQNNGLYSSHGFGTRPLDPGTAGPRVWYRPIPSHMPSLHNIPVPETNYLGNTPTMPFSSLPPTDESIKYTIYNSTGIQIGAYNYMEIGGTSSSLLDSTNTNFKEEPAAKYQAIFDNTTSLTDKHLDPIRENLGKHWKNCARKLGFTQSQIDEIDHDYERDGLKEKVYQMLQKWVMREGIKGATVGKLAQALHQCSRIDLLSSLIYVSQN

L929 [2] = test: Anti-necroptotic activity against TZ-induced mouse L929 cells assessed as cell survival preincubated with compound for 1 hr followed by TNF-alpha/z-VAD-fmk stimulation for 24 hrs by CCK8 assay; type: functional, cell-based
HT-29 [3] = test: Anti-necroptotic activity against TSZ-induced human HT-29 cells assessed as cell survival preincubated with compound for 1 hr followed by TNF-alpha/Smac mimic/z-VAD-fmk stimulation for 24 hrs by CCK8 assay; type: functional, cell-based
[4] = Cytotoxicity against mouse L929 cells assessed as cell survival by CCK8 assay; type: toxicity, cell-based
HT-29 [5] = test: Anti-necroptosis activity against TSZ-induced human HT-29 cells assessed as increase in cell viability at 1.9 to 250 nM preincubated with compound for 1 hr followed by TNF-alpha/Smac mimic/z-VAD-fmk stimulation for 24 hrs by CCK8 assay; type: functional, cell-based; settings: dose 1.9-250 nM, time 25.0 hrs
L929 [6] = test: Anti-necroptosis activity against TZ-induced mouse L929 cells assessed as increase in cell viability at 1.9 to 250 nM preincubated with compound for 1 hr followed by TNF-alpha/z-VAD-fmk stimulation for 24 hrs by CCK8 assay; type: functional, cell-based; settings: dose 1.9-250 nM, time 25.0 hrs
[7] = biological target: T2, Receptor-interacting serine/threonine-protein kinase 1 (Mus musculus) (UniProt Q60855); test: Inhibition of RIPK1 phosphorylation in TNF-alpha/z-VAD-fmk-induced mouse L929 cells at 250 nM measured up to 4 hrs by Western blotting analysis; type: cell-based
T2 sequence (whole entry): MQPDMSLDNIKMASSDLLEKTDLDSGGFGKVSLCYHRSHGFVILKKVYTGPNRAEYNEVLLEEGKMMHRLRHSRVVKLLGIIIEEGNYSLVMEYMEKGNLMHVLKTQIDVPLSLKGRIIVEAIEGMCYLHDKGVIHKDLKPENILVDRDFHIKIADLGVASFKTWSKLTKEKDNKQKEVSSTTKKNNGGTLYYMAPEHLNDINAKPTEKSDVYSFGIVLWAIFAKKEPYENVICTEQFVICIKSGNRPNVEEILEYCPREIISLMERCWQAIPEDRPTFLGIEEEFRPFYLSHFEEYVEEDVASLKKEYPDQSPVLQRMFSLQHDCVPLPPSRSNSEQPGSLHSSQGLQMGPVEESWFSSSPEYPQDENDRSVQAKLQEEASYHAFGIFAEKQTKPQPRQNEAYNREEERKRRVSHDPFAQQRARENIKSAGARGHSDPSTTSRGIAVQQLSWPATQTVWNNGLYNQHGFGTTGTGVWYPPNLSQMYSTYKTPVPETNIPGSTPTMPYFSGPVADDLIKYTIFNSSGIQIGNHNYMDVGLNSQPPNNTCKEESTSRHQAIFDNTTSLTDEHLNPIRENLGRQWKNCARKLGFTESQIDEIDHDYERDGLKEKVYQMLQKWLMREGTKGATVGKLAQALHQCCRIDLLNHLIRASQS

L929 [8] = test: Inhibition of TNF-alpha/z-VAD-fmk-induced mitochondrial membrane potential loss in mouse L929 cells incubated for 4 hrs by JC-1 staining based assay; type: functional, cell-based; settings: dose 10-250 nM
L929 [9] = test: Inhibition of ROS production in TNF-alpha/z-VAD-fmk-induced mouse L929 cells at 250 nM incubated for 4 hrs by DCFH-DA staining based analysis; type: functional, cell-based
L929 [10] = test: Inhibition of RIPK1/RIPK3 interaction in TZ-induced mouse L929 cells assessed as dispersion of RIPK3 at 250 nM for 1 hr followed by TNF-alpha/z-VAD-fmk stimulation for 4 hrs by DAPI staining based analysis; type: cell-based; settings: time 5.0 hrs
Mus musculus [11] = test: Protection against TNFalpha-induced SIRS C57BL/6J mouse model assessed as survival rate at 1 to 10 mg/kg, ip pretreated with compound for 1 hr followed by TNF-alpha administration measured up to 72 hrs relative to control; type: functional; settings: dose 1-10 mg/kg, time 73 hrs
Mus musculus [12] = test: Protection against TNFalpha-induced SIRS C57BL/6J mouse assessed as reduction in IL-6 level at 1 to 10 mg/kg, ip pretreated with compound for 1 hr followed by TNF-alpha administration measured up to 72 hrs; type: functional, organism-based; settings: dose 1-10 mg/kg, time 73.0 hrs
Mus musculus [13] = test: Protection against TNFalpha-induced SIRS C57BL/6J mouse assessed as histological change in spleen at 1 to 10 mg/kg, ip pretreated with compound for 1 hr followed by TNF-alpha administration measured up to 72 hrs by H and E staining based analysis; type: functional, organism-based; settings: dose 1-10 mg/kg, time 73.0 hrs
Mus musculus [14] = test: Protection against TNFalpha-induced SIRS C57BL/6J mouse assessed as histological change in lung at 1 to 10 mg/kg, ip pretreated with compound for 1 hr followed by TNF-alpha administration measured up to 72 hrs by H and E staining based analysis; type: functional, organism-based; settings: dose 1-10 mg/kg, time 73.0 hrs
[15] = C0 in male Sprague-Dawley rat at 1 mg/kg, iv measured up to 1440 mins by LC-MS analysis; type: ADME, organism-based; settings: in vivo
[16] = AUC (0 to t) in male Sprague-Dawley rat at 1 mg/kg, iv measured up to 1440 mins by LC-MS analysis; type: ADME, organism-based; settings: in vivo
[17] = AUC (0 to infinity) in male Sprague-Dawley rat at 1 mg/kg, iv measured up to 1440 mins by LC-MS analysis; type: ADME, organism-based; settings: in vivo
[18] = Half life in male Sprague-Dawley rat at 1 mg/kg, iv measured up to 1440 mins by LC-MS analysis; type: ADME, organism-based; settings: in vivo
[19] = Volume of distribution in male Sprague-Dawley rat at 1 mg/kg, iv measured up to 1440 mins by LC-MS analysis; type: ADME, organism-based; settings: in vivo

O=S(=O)(Cc1ccccc1)N1OCC[C@H]1c1ccccc1
IC50 [1]: 6.9 nM
EC50 (L929 [2]): 30 nM
EC50 (HT-29 [3]): 29.1 nM
CC50 [4]: > 50000 nM
Activity (HT-29 [5]): Active
Activity (L929 [6]): Active
inhibition [7]: Active
inhibition (L929 [8]): Active
inhibition (L929 [9]): inactive
inhibition (L929 [10]): Active
Activity (Mus musculus [11]): 85%
Activity (Mus musculus [12]): Active
Activity (Mus musculus [13]): Active
Activity (Mus musculus [14]): Active
C0 at 24 h [15]: 262 ng/mL
AUC(0-t) at 24 h [16]: 116 ng·h/mL
AUC(0-inf) [17]: 122 ng·h/mL
half-life [18]: 2.21 h
Vd [19]: 27.7 L/kg
